System: Escherichia coli strain ATCC25922
Assay: standard microdilution assay to determine minimum inhibitory concentrations (MICs)
Format: cell-based
Experimental: The in vitro activity of the compounds of the present invention can be determined. Antimicrobial testing is typically performed to determine the minimum inhibitory concentration (MIC). Minimum inhibitory concentrations (MICs) are determined by the microdilution method in a final volume of 100 μl according to protocols outlined by The Clinical and Laboratory Standards Institute (CLSI). Performance standards for reference strains are assessed within the same experimental design to maintain quality control. See, for example, Clinical Laboratory Standards Institute: Methods for dilution antimicrobial susceptibility tests for bacteria that grow aerobically M7-A8. Approved Standard-Eighth Edition. Wayne, Pa.: CLSI; December 2008; and Clinical Laboratory Standards Institute: Performance Standards for Antimicrobial Susceptibility Testing M100-S20; Approved Standard-Twentieth Edition. Wayne, Pa.: CLSI; June 2010.
The compounds of the present invention were tested for antimicrobial activity. […] The compounds were run against Escherichia coli strain ATCC25922 using a standard microdilution assay to determine minimum inhibitory concentrations (MICs). […] A “N/A” means that data is unavailable. It will be recognized by one skilled in the art that the compounds can be assessed against other bacterial organisms and that the presentation of data for activity against Escherichia coli is illustrative and in no way is intended to limit the scope of the present invention. The compounds of the present invention can be assayed against a range of other microorganisms depending upon the performance activity desired to be gathered. Furthermore, the “+”, “−”, and “N/A” representation and the selection of a cutoff value of 16 micrograms/ml is also illustrative and in no way is intended to limit the scope of the present invention.

[1] = Escherichia coli strain ATCC25922, standard microdilution assay
[2] = Escherichia coli strain ATCC25922, microdilution

Row | SMILES | E. coli ATCC25922 MIC [1] | E. coli ATCC25922 MIC [2]
1 | CC(C)(N)CCCc1cc(SC(F)(F)F)cc(-c2cc3cn(-c4ccc(CN)cc4)c(=O)nc3[nH]2)c1 [Compound 335] | + (a “+” indicates that the compound has an MIC value of 16 micrograms/ml or less) | 
2 | N=C(N)NCCCNCc1ccc(-n2cc3cc(-c4cccc(CCCCN)c4F)[nH]c3nc2=O)cc1 [Compound 5] |  | + (a “+” indicates that the compound has an MIC value of 16 micrograms/ml or less)
3 | C[C@H](N)CCCc1cc(-c2cc3cn(-c4ccc([C@H](C)NCCCNC(=N)N)cc4)c(=O)nc3[nH]2)cc(C(C)(C)C)c1 [Compound 434] | + (a “+” indicates that the compound has an MIC value of 16 micrograms/ml or less) | 
4 | N=C(N)NCCCNCc1ccc(-n2cc3cc(-c4cc(CCCCN)cc(NC(N)=O)c4)[nH]c3nc2=O)cc1 [Compound 49] |  | + (a “+” indicates that the compound has an MIC value of 16 micrograms/ml or less)
5 | N=C(N)NCCCNCc1c(F)cc(-n2cc3cc(-c4cc(CCCCN)ccc4F)[nH]c3nc2=O)cc1F [Compound 53] |  | + (a “+” indicates that the compound has an MIC value of 16 micrograms/ml or less)
6 | CC(N)CCCc1cc(SC(F)(F)F)c(Cl)c(-c2cc3cn(-c4ccc(CNCCCNC(=N)N)cc4)c(=O)nc3[nH]2)c1 (stereo not drawn) [Compound 288] |  | + (a “+” indicates that the compound has an MIC value of 16 micrograms/ml or less)
7 | NCCCCc1cc(Cl)c(F)c(-c2cc3cn(-c4ccc(CNCCCN=C(N)N)cc4)c(=O)nc3[nH]2)c1 [Compound 91] |  | + (a “+” indicates that the compound has an MIC value of 16 micrograms/ml or less)
8 | COc1cccc(OCCCN)c1NC(=O)Nc1nc(=O)c(-c2ccc(CNCCCNC(=N)N)cc2)c[nH]1 [Compound 185] |  | − (a “−” indicates that the compound has an MIC value greater than 16 micrograms/ml)
9 | C[C@H](NCCCNC(=N)N)c1ccc(-n2cc3cc(-c4cc(CCCC(C)(C)N)cc(OC(F)(F)F)c4)[nH]c3nc2=O)cc1 [Compound 264] |  | + (a “+” indicates that the compound has an MIC value of 16 micrograms/ml or less)
10 | N=C(N)NCCCNCc1ccc(-n2cc3cc(-c4c(Cl)ccc(CCCCN)c4Cl)[nH]c3nc2=O)cc1 [Compound 10] |  | + (a “+” indicates that the compound has an MIC value of 16 micrograms/ml or less)
11 | N=C(N)NCCCNCc1ccc(-n2cc3cc(-c4cc(CCCCN)cc(OC(F)(F)F)c4F)[nH]c3nc2=O)cc1 [Compound 107] |  | + (a “+” indicates that the compound has an MIC value of 16 micrograms/ml or less)
12 | NCCCCc1cc(SC(F)(F)F)c(Cl)c(-c2cc3cn(-c4ccc(CNCCCN=C(N)N)cc4)c(=O)nc3[nH]2)c1 [Compound 92] |  | + (a “+” indicates that the compound has an MIC value of 16 micrograms/ml or less)
13 | CC(N)CCCc1cc(Cl)c(F)c(-c2cc3cn(-c4ccc(C(CC(=O)O)NCCCNC(=N)N)cc4)c(=O)nc3[nH]2)c1 (stereo not drawn) [Compound 489] |  | + (a “+” indicates that the compound has an MIC value of 16 micrograms/ml or less)
14 | CC(N)CCCc1cc(-c2cc3cn(-c4ccc(C(C)NCCCNC(=N)N)cc4)c(=O)nc3[nH]2)c(F)c(Cl)c1F (stereo not drawn) [Compound 493] |  | + (a “+” indicates that the compound has an MIC value of 16 micrograms/ml or less)
15 | N=C(N)NCCCNCc1ccc(-n2cc3cc(-c4cc(CCC(O)CN)cc(OC(F)(F)F)c4)[nH]c3nc2=O)cc1 (stereo not drawn) [Compound 240] |  | + (a “+” indicates that the compound has an MIC value of 16 micrograms/ml or less)
16 | CC(C)c1cc(CCC[C@H](C)N)cc(-c2cc3cn(-c4ccc([C@H](C)NCCCNC(=N)N)cc4)c(=O)nc3[nH]2)c1F [Compound 447] | + (a “+” indicates that the compound has an MIC value of 16 micrograms/ml or less) | 
17 | N=C(N)NCCCCc1cc(-c2cc3cn(-c4ccc(CNCCCNC(=N)N)cc4)c(=O)nc3[nH]2)cc(-n2ccnn2)c1 [Compound 56] |  | + (a “+” indicates that the compound has an MIC value of 16 micrograms/ml or less)
18 | N=C(N)NCCCNCc1ccc(-n2cc3cc(-c4cc(C(O)CCCN)ccc4Cl)[nH]c3nc2=O)cc1 (stereo not drawn) [Compound 51] |  | + (a “+” indicates that the compound has an MIC value of 16 micrograms/ml or less)
19 | C[C@H](NCCCNC(=N)N)c1ccc(-n2cc3cc(-c4ccc(C(NC5CN(C(=N)N)C5)C(F)(F)F)cc4)[nH]c3nc2=O)cc1 (stereo partly drawn) [Compound 227] |  | + (a “+” indicates that the compound has an MIC value of 16 micrograms/ml or less)
20 | N=C(N)NCCCNCc1ccc(-n2cc3cc(-c4cc(CCCCN)cc(-c5cccnc5)c4)[nH]c3nc2=O)cc1 [Compound 61] |  | + (a “+” indicates that the compound has an MIC value of 16 micrograms/ml or less)

Row | SMILES | E. coli ATCC25922 MIC [1] | E. coli ATCC25922 MIC [2]
21 | N#Cc1cc(CCCCN)cc(-c2cc3cn(-c4ccc(CNCCCNC(=N)N)cc4)c(=O)nc3[nH]2)c1F [Compound 122] |  | + (a “+” indicates that the compound has an MIC value of 16 micrograms/ml or less)
22 | C[C@H](N)c1ccc(-n2cc3cc(-c4cc(CCC5(CN)CC5)cc(C(F)(F)F)c4)[nH]c3nc2=O)cc1 [Compound 354] | − (a “−” indicates that the compound has an MIC value greater than 16 micrograms/ml) | 
23 | C[C@H](N)CCCc1cc(OC(F)(F)F)cc(-c2cc3cn(-c4ccc([C@H](C)NCCCNC(=N)N)cc4)c(=O)nc3[nH]2)c1 [Compound 230] |  | + (a “+” indicates that the compound has an MIC value of 16 micrograms/ml or less)
24 | COc1cc(CCCCN)cc(-c2cc3cn(-c4ccc(CNCCCNC(=N)N)cc4)c(=O)nc3[nH]2)c1C(F)(F)F [Compound 265] |  | + (a “+” indicates that the compound has an MIC value of 16 micrograms/ml or less)
25 | C[C@H](NCCCNC(=N)N)c1ccc(-n2cc3cc(-c4cc(CCCCN)cc(SC(F)(F)F)c4)[nH]c3nc2=O)cc1 [Compound 69] |  | + (a “+” indicates that the compound has an MIC value of 16 micrograms/ml or less)
26 | C[C@H](N)CCCc1cc(-c2cc3cn(-c4ccc([C@H](C)NCCCNC(=N)N)cc4)c(=O)nc3[nH]2)cc(C(F)(F)F)c1 [Compound 236] |  | + (a “+” indicates that the compound has an MIC value of 16 micrograms/ml or less)
27 | N=C(N)NCCCNCc1ccc(-n2cc3cc(-c4cc(CC5CC(CN)C5)cc(C(F)(F)F)c4)[nH]c3nc2=O)cc1 (stereo not drawn) [Compound 349] | + (a “+” indicates that the compound has an MIC value of 16 micrograms/ml or less) | 
28 | C[C@H](N)CCCc1cc(OC(F)(F)F)c(F)c(-c2cc3cn(-c4ccc([C@H](C)NCCCNC(=N)N)cc4)c(=O)nc3[nH]2)c1 [Compound 316] |  | + (a “+” indicates that the compound has an MIC value of 16 micrograms/ml or less)
29 | CC(NCCCNC(=N)N)c1ccc(-n2cc3cc(-c4cc(CC5CCC(N)C5)cc(Cl)c4F)[nH]c3nc2=O)cc1 (mixture of isomers) [Compound 421] | + (a “+” indicates that the compound has an MIC value of 16 micrograms/ml or less) | 
30 | C[C@H](N)COCc1cc(-c2cc3cn(-c4ccc([C@H](C)NCCCNC(=N)N)cc4)c(=O)nc3[nH]2)cc(C(F)(F)F)c1 [Compound 322] |  | + (a “+” indicates that the compound has an MIC value of 16 micrograms/ml or less)
31 | C[C@H](N)COCc1cc(SC(F)(F)F)cc(-c2cc3cn(-c4ccc(CNCCCNC(=N)N)cc4)c(=O)nc3[nH]2)c1 [Compound 344] | + (a “+” indicates that the compound has an MIC value of 16 micrograms/ml or less) | 
32 | N=C(N)NCCCNCc1ccc(-n2cc3cc(-c4cc(CCCCN)ccc4F)[nH]c3nc2=O)cc1F [Compound 54] |  | + (a “+” indicates that the compound has an MIC value of 16 micrograms/ml or less)
33 | N=C(N)NCCCNCc1ccc(-n2cc3cc(-c4cc(OC(F)(F)F)cc(C5CCC(CN)O5)c4)[nH]c3nc2=O)cc1 (stereo not drawn) [Compound 437] | + (a “+” indicates that the compound has an MIC value of 16 micrograms/ml or less) | 
34 | CC(CN)CN1CC(NC(=O)Nc2nc(=O)c(-c3ccc(CNCCCNC(=N)N)cc3)c[nH]2)CC1COCc1c(Cl)cccc1Cl (stereo not drawn) [Compound 150] |  | − (a “−” indicates that the compound has an MIC value greater than 16 micrograms/ml)
35 | CC(N)CCCc1cc(OC(F)(F)F)cc(-c2cc3cn(-c4ccc(C(C)N)cc4)c(=O)nc3[nH]2)c1 (stereo not drawn) [Compound 356] | − (a “−” indicates that the compound has an MIC value greater than 16 micrograms/ml) | 
36 | CC(NCCCNC(=N)N)c1ccc(-n2cc3cc(-c4cc(COC(C)C(C)N)cc(OC(F)(F)F)c4)[nH]c3nc2=O)cc1 (stereo not drawn) [Compound 419] | + (a “+” indicates that the compound has an MIC value of 16 micrograms/ml or less) | 
37 | C[C@H](NCCCNC(=N)N)c1ccc(-n2cc3cc(-c4cc(C[C@H]5C[C@H](CN)C5)cc(SC(F)(F)F)c4)[nH]c3nc2=O)cc1 [Compound 403] | + (a “+” indicates that the compound has an MIC value of 16 micrograms/ml or less) | 
38 | C[C@@H](CCCc1cc(SC(F)(F)F)cc(-c2cc3cn(-c4ccc(CNCCCNC(=N)N)cc4)c(=O)nc3[nH]2)c1)N(C)C [Compound 302] |  | + (a “+” indicates that the compound has an MIC value of 16 micrograms/ml or less)
39 | CC(NCCCNC(=N)N)c1ccc(-n2cc3cc(-c4cc(OC(F)(F)F)cc(C5CCC(CN)O5)c4)[nH]c3nc2=O)cc1 (stereo not drawn) [Compound 436] | + (a “+” indicates that the compound has an MIC value of 16 micrograms/ml or less) | 
